Laboratory results reported in EP0551200A1, “Protein phosphatase inhibitors for use in therapy” (priority 1992, dated 1993).

Legend:
[1] = test system: Egr-1 protein; assay: Western blot analysis of Egr-1 protein from primary human fibroblasts; type: cell-based
Description: Quiescent primary human fibroblasts were incubated with MEM containing 0.5 µM of okadaic acid for the times indicated. As a positive control, the quiescent cells were also incubated with medium containing 20% fetal calf serum for 2 h. Total cellular proteins were extracted and subjected to Western blot analysis as described previously (Cao et al, Mol. Cell. Biol. 10, 1931-1939, 1989). The blot was reacted with anti-Egr-1 polyclonal antibody (R5232).
Cellular proteins were extracted from quiescient, okadaic acid-treated and serum-treated human fibroblasts and subjected to Western blot analysis using rabbit polyclonal Egr-1 antibodies. In the control quiescent cells, traces of Egr-1 protein with molecular masses of 80 kDa and 100 kDa were detected. An approximately 6-fold increase of the 80 kDa protein was measured in the cells 2 h after serum stimulation. An approximately 2-fold increase in the 80 kDa Egr-1 protein was detected in the cells after 1 h okadaic acid treatment. However, at 2.5 h after okadaic acid treatment the Egr-1 protein was mostly detected as the 100 kDa moiety rather than as the 80 kDa protein (Fig. 13). […] By 6 h after okadaic acid treatment the cellular level of the 100 kDa Egr-1 protein was reduced (Fig. 13). […]

[2] = test system: Egr-1 mRNA; assay: Stability of induced Egr-1 mRNA after actinomycin D, Northern blot, Balb/c 3T3 cells; type: cell-based, mouse; details: actinomycin D 25 µg/ml
Description: (A). Quiescent Balb/c 3T3 cells were incubated with either 0.5 µM of okadaic acid or 20% serum for 3 h or 0.5 h, respectively. Actimomycin D (final concentration being 25 µg/ml) was then added. The cells were then harvested at 0.5, 1, 1.5, 2 and 3 h after the addition of actinomycin D. RNA was isolated from these cells and analyzed by Northern blot. The blot was probed with Egr-1 or GADPH cDNA.
Quiescent mouse Balb/c 3T3 fibroblasts were incubated with DMEM containing either 0.5µM okadaic acid or 10% fetal calf serum for the times indicated in Fig. 10. […] Cells were harvested at the indicated time points and extracted for RNA and the RNA subjected to Northern blot analysis (Fig. 10).

[3] = test system: Egr-1 mRNA; assay: Nuclear run-on analysis of transcription in Balb/c 3T3 cells; type: cell-based, mouse; details: 0.5 µM
Description: Nuclei were isolated from quiescent (0 h) and okadaic acid-treated (0.5 µM) Balb/c 3T3 cells under conditions described in the "Experimental Procedures" of Example 2. Nylon matrix containing the indicated plasmids were hybridized with the in vitro transcribed RNA and then autoradiographed. Control cells were also treated with DMEM containing […] of DMSO and RNA from these cells were also transcribed and hybridized to the various plasmids indicated.
Cell Cultures and Reagents. Human diploid foreskin fibroblasts were a gift from Dr J Vilcek (New York University, New York). The cells were grown in MEM supplemented with 10% fetal bovine serum (Hyclone, Logan, UT, US), Mouse Balb/c 3T3 cells were purchased from the American Type Culture Collection and grown in Dulbecco's MEM (DMEM) supplemented with 10% fetal bovine serum. Okadaic acid, calyculin A, H7, and HA1004 were purchased from Biomol Research Laboratories (Plymouth Meeting, PA, US). TPA, puromycin and dBt-cAMP were purchased from Sigma (St Louis, MO, US) 1 mM stock solutions of okadaic acid or calyculin A were solubilized in DMSO. [³²P]orthophosphate and other radioactive chemicals were purchased from Du Pont-New England Nuclear (Boston, MA). Preparation of RNA and Northern Analysis. Balb/c 3T3 cells were grown to near confluency in DMEM supplemented with 10% fetal calf serum. The cells were then maintained in DMEM without serum for 48 h followed by treatment with the indicated agonists for the times indicated. Similarly human fibroblasts were maintained in MEM supplemented with 10% fetal bovine serum. Nearly confluent human fibroblasts were maintained for 2 days in MEM supplemented with 0.25% fetal bovine serum before treatment with agonists. The cells were harvested and total cytoplasmic RNA was isolated and subjected to Northern analysis as previously described (Chomczynski et al, Anal. Biochem. 162, 156-159, 1987). The blots were autoradiographed and quantitated with the aid of the Visage 2000 Image System (BioImage Products, Ann Arbor, MI, US). Nuclear Run-on Analysis of Transcription. […]

C=C1[C@@H](O)[C@@H]2O[C@]3(CC[C@H](/C=C/[C@@H](C)[C@@H]4CC(C)=C[C@@]5(O[C@H](C[C@@](C)(O)C(=O)O)CC[C@H]5O)O4)O3)CC[C@H]2O[C@@H]1[C@@H](O)C[C@H](C)[C@H]1O[C@@]2(CCCCO2)CC[C@H]1C [okadaic acid]
level of the 100 kDa Egr-1 protein relative to the 80 kDa Egr-1 protein of control cells ([1]; 0.5 µM, 2.5 h): 3 to 4 fold
fold induction at 0.5 µM ([1]; Homo sapiens, Fibroblast, 1 h, read-out: increase in the 80 kDa Egr-1 protein): ~2
time for which induced Egr-1 mRNA is detectable after actinomycin D treatment ([2]; 0.5 µM): up to 5.5 h
half life of the induced Egr-1 message ([2]; calculated from the data in Fig. 10): about 120 min
time at which a trace of newly transcribed Egr-1 mRNA was detectable [3]: 0.5 h
time by which significant amounts of Egr-1 mRNA were transcribed [3]: ≤ 1 h
time of maximum transcription of Egr-1 mRNA [3]: 4 h
